Measured values as given in patent US20250230147A1, “LACTAMS AS CBL-B INHIBITORS” (Genentech, Inc., priority 2021, published 2025).
Counter-ions that a name gives are not always drawn.

What was measured:
Cbl-b = Cbl-b (Homo sapiens (Human), UniProt Q13191); test: Cbl-b LCK Ub TR-FRET assay (Cbl-b Lck HTRF); format: biochemical
Outline: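 Biotin-Cbl-b preincubated with compound (10-point 3-fold series) 60 min, then His-LCK with 1 mM ATP (2× mixture) added for 90 min at room temperature. Ubiquitination detected by TR-FRET using HA-ubiquitin/UBE2D2 adduct, anti-HA-D2 and streptavidin-Eu; IC50 normalised to no-LCK and DMSO controls.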

c-Cbl = c-Cbl (Homo sapiens (Human), UniProt P22681); test: C-Cbl LCK Ub TR-FRET assay (c-cbl Lck HTRF); format: biochemical; conditions: for (fold-selectivity): C-cbl Lck HTRF IC50 relative to Cbl-b Lck HTRF IC50
Chain of c-Cbl (P22681 47-435): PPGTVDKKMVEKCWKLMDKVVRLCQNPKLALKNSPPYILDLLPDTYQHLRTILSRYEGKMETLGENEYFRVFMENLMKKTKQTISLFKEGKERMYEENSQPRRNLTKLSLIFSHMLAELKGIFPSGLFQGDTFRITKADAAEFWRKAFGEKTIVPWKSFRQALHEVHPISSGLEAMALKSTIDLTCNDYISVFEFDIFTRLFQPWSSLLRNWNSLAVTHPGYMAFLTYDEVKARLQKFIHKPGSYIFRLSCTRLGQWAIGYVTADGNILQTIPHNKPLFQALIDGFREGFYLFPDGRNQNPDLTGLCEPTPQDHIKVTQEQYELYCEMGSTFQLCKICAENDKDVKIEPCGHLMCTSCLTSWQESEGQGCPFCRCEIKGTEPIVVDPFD
Outline: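 Signal is read once the detection mix has stood 20 min at ambient temperature. Curves are anchored by DMSO as maximum and by omission of LCK as minimum.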

Chain of Cbl-b (Q13191 40-426): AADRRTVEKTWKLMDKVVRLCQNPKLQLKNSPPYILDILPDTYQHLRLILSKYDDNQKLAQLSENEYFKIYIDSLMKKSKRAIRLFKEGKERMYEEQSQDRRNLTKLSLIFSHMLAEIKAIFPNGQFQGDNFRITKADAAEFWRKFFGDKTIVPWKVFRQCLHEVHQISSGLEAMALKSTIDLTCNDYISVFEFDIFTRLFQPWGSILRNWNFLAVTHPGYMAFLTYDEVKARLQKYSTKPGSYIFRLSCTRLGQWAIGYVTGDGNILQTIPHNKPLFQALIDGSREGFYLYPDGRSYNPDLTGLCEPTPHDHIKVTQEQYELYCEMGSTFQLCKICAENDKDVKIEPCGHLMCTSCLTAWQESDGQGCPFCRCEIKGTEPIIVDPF

SMILES	IC50 (Cbl-b) [nM]	IC50 (c-Cbl) [nM]	(fold-selectivity) (c-Cbl)
COCCN1CCC(Nc2cc(C3(Cc4nncn4C)CCC3)cc(N3Cc4c(cc(CNC5(C)CCC5)cc4C(F)(F)F)C3=O)n2)CC1 [Compound 302, 2-(6-((1-(2-methoxyethyl)piperidin-4-yl)amino)-4-(1-((4-methyl-4H-1,2,4-triazol-3-yl)methyl)cyclobutyl)pyridin-2-yl)-6-(((1-methylcyclobutyl)amino)methyl)-4-(trifluoromethyl)isoindolin-1-one]	590	660	(1.1x)
Cn1cnnc1[C@H](F)C1(c2cccc(N3Cc4c(cc(CN5CCC56COC6)cc4C(F)(F)F)C3=O)c2)COC1 [Compound 175, (R)-6-(6-oxa-1-azaspiro[3.3]heptan-1-ylmethyl)-2-(3-(3-(fluoro(4-methyl-4H-1,2,4-triazol-3-yl)methyl)oxetan-3-yl)phenyl)-4-(trifluoromethyl)isoindolin-1-one]	150	350	2.5x
CC(C)NCc1cc2c(c(C(F)(F)F)c1)CN(c1cccc(C3([C@@H](F)c4nncn4C)COC3)c1)C2=O [Compound 226, (R)-2-(3-(3-(fluoro(4-methyl-4H-1,2,4-triazol-3-yl)methyl)oxetan-3-yl)phenyl)-6-((isopropylamino)methyl)-4-(trifluoromethyl)isoindolin-1-one formate]	29	33	
CC(C)[C@H]1CN(C)CCN1Cc1cc2c(c(C(F)(F)F)c1)CN(c1cccc(C3([C@@H](F)c4nncn4-c4ccccc4)COC3)c1)C2=O [Compound 259, 2-(3-(3-((R)-fluoro(4-phenyl-4H-1,2,4-triazol-3-yl)methyl)oxetan-3-yl)phenyl)-6-(((S)-2-isopropyl-4-methylpiperazin-1-yl)methyl)-4-(trifluoromethyl)isoindolin-1-one]	3100	3100	(1.0x)
Cc1ncn(CC2(c3cccc(N4Cc5c(cc(CN6CCN(C)C[C@@H]6C(C)C)cc5C(F)(F)F)C4=O)c3)COC2)n1 [Compound 255, (S)-6-((2-isopropyl-4-methylpiperazin-1-yl)methyl)-2-(3-(3-((3-methyl-1H-1,2,4-triazol-1-yl)methyl)oxetan-3-yl)phenyl)-4-(trifluoromethyl)isoindolin-1-one]	20000	≥ 20000	(1.0x)
CC[C@@H]1CCC[C@H](c2cc3c(c(C(F)(F)F)c2)CN(c2cccc(C4(Cc5nncn5C)CC(F)(F)C4)c2)C3=O)N1 [Compound 274, 2-(3-(3,3-difluoro-1-((4-methyl-4H-1,2,4-triazol-3-yl)methyl)cyclobutyl)phenyl)-6-((2R,6R)-6-ethylpiperidin-2-yl)-4-(trifluoromethyl)isoindolin-1-one]	140	220	(1.6x)
CC(C)[C@H]1CN(C)CCN1Cc1cc2c(c(C(F)(F)F)c1)CN(c1cccc(C3([C@@H](F)c4n[nH]cc4C(F)(F)F)COC3)c1)C2=O [Compound 377, 2-(3-(3-((R)-fluoro(4-(trifluoromethyl)-1H-pyrazol-3-yl)methyl)oxetan-3-yl)phenyl)-6-(((S)-2-isopropyl-4-methylpiperazin-1-yl)methyl)-4-(trifluoromethyl)isoindolin-1-one]	10000	20000	(2.0x)
CN1CCN(Cc2cc3c(c(C(F)(F)F)c2)CN(c2cccc(C4(Cc5nncn5C)CC(F)(F)C4)c2)C3=O)CC1 [Compound 411, 2-(3-(3,3-difluoro-1-((4-methyl-4H-1,2,4-triazol-3-yl)methyl)cyclobutyl)phenyl)-6-((4-methylpiperazin-1-yl)methyl)-4-(trifluoromethyl)isoindolin-1-one]	48	43	(0.88x)
Cn1cnnc1[C@@H](F)C1(c2cccc(N3Cc4c(cc(CN)cc4C(F)(F)F)C3=O)c2)CCC1 [Compound 387, (S)-6-(aminomethyl)-2-(3-(1-(fluoro(4-methyl-4H-1,2,4-triazol-3-yl)methyl)cyclobutyl)phenyl)-4-(trifluoromethyl)isoindolin-1-one]	58	53	(0.91x)
CC(C)Nc1cc([C@H](C)Cc2nncn2C)cc(N2Cc3c(cc(CN4CCC5(CC5)C4)cc3C(F)(F)F)C2=O)n1.O=CO [Compound 55, (R)-6-((5-azaspiro[2.4]heptan-5-yl)methyl)-2-(6-(isopropylamino)-4-(1-(4-methyl-4H-1,2,4-triazol-3-yl)propan-2-yl)pyridin-2-yl)-4-(trifluoromethyl)isoindolin-1-one formate]	16	26	1.6x
C=CCNc1cc(C2(Cc3nncn3C)CCC2)cc(N2Cc3c(cc(CN4CCN(C)C[C@@H]4C(C)C)cc3C(F)(F)F)C2=O)n1 [Compound 275, (S)-2-(6-(allylamino)-4-(1-((4-methyl-4H-1,2,4-triazol-3-yl)methyl)cyclobutyl)pyridin-2-yl)-6-((2-isopropyl-4-methylpiperazin-1-yl)methyl)-4-(trifluoromethyl)isoindolin-1-one]	7	7	(1.0x)
Cn1cnnc1[C@@H](F)C1(c2cccc(N3Cc4c(cc(CN5CC(C)(C)C5)cc4C(F)(F)F)C3=O)c2)COC1 [Compound 73, (S)-6-((3,3-dimethylazetidin-1-yl)methyl)-2-(3-(3-(fluoro(4-methyl-4H-1,2,4-triazol-3-yl)methyl)oxetan-3-yl)phenyl)-4-(trifluoromethyl)isoindolin-1-one]	140	300	2.2x
Cn1cnnc1[C@H](F)C1(c2cccc(N3Cc4c(cc(CN5CCOCC5)cc4C(F)(F)F)C3=O)c2)COC1 [Compound 88, (R)-2-(3-(3-(fluoro(4-methyl-4H-1,2,4-triazol-3-yl)methyl)oxetan-3-yl)phenyl)-6-(morpholinomethyl)-4-(trifluoromethyl)isoindolin-1-one]	100	210	2.1x
COCC1(F)CN(Cc2cc3c(c(C(F)(F)F)c2)CN(c2cccc(C4([C@H](F)c5nncn5C)COC4)c2)C3=O)C1 [Compound 136, (S)-2-(3-(3-(fluoro(4-methyl-4H-1,2,4-triazol-3-yl)methyl)oxetan-3-yl)phenyl)-6-((3-fluoro-3-(methoxymethyl)azetidin-1-yl)methyl)-4-(trifluoromethyl)isoindolin-1-one]	280	560	2.0x
CC(C)[C@H]1CN(C)CCN1Cc1cc2c(c(C(F)(F)F)c1)CN(c1cc(C3(Cc4nncn4C)CC(F)(F)C3)cc(N(C)C)n1)C2=O [Compound 280, (S)-2-(4-(3,3-difluoro-1-((4-methyl-4H-1,2,4-triazol-3-yl)methyl)cyclobutyl)-6-(dimethylamino)pyridin-2-yl)-6-((2-isopropyl-4-methylpiperazin-1-yl)methyl)-4-(trifluoromethyl)isoindolin-1-one]	12	11	(0.96x)
CO[C@@H]1CCN(Cc2cc3c(c(C(F)(F)F)c2)CN(c2cccc(C4([C@H](F)c5nncn5C)COC4)c2)C3=O)C1 [Compound 48, 2-(3-(3-((S)-fluoro(4-methyl-4H-1,2,4-triazol-3-yl)methyl)oxetan-3-yl)phenyl)-6-(((R)-3-methoxypyrrolidin-1-yl)methyl)-4-(trifluoromethyl)isoindolin-1-one]	320	780	2.4x
CN(C)Cc1cccc(CNc2cc(C3(Cc4nncn4C)CCC3)cc(N3Cc4c(cc(CNC5(C)CCC5)cc4C(F)(F)F)C3=O)n2)c1 [Compound 318, 2-(6-((3-((dimethylamino)methyl)benzyl)amino)-4-(1-((4-methyl-4H-1,2,4-triazol-3-yl)methyl)cyclobutyl)pyridin-2-yl)-6-(((1-methylcyclobutyl)amino)methyl)-4-(trifluoromethyl)isoindolin-1-one]	130	140	(1.1x)
CC(C)[C@H]1CN(C)CCN1Cc1cc2c(c(C(F)(F)F)c1)CN(c1cccc(C3([C@H](F)c4nncn4C(F)F)COC3)c1)C2=O [Compound 268, 2-(3-(3-((S)-(4-(difluoromethyl)-4H-1,2,4-triazol-3-yl)fluoromethyl)oxetan-3-yl)phenyl)-6-(((S)-2-isopropyl-4-methylpiperazin-1-yl)methyl)-4-(trifluoromethyl)isoindolin-1-one]	16	11	(0.68x)
CC(C)[C@H]1CN(C)CCN1Cc1cc2c(c(C(F)(F)F)c1)CN(c1cccc(C3([C@H](F)c4nncn4C4CCCCC4)COC3)c1)C2=O [Compound 455, 2-(3-(3-((S)-(4-cyclohexyl-4H-1,2,4-triazol-3-yl)fluoromethyl)oxetan-3-yl)phenyl)-6-(((S)-2-isopropyl-4-methylpiperazin-1-yl)methyl)-4-(trifluoromethyl)isoindolin-1-one]	4400	3100	(0.70x)
CC(C)NCc1cc2c(c(C(F)(F)F)c1)CN(c1cccc(C3([C@@H](F)c4nncn4C)CC(F)(F)C3)c1)C2=O [Compound 417, (R)-2-(3-(3,3-difluoro-1-(fluoro(4-methyl-4H-1,2,4-triazol-3-yl)methyl)cyclobutyl)phenyl)-6-((isopropylamino)methyl)-4-(trifluoromethyl)isoindolin-1-one]	57	52	(0.93x)
